The MIC90 is the lowest concentration that inhibits either 90% of growth or 90% of the strains tested, depending on the study. High values mean weaker potency, low ones greater potency.

Assay [1] concerns Mycobacterium tuberculosis. Put plainly: Antitubercular activity against isoniazid/rifampicin-resistant Mycobacterium tuberculosis 16892 clinical isolate after 7 days by microplate alamar blue assay. The note with it: Mycobacterium tuberculosis, 16892, 168 h. Type of assay: functional. For orientation: Resazurin is reduced to fluorescent resorufin, in cell work by metabolically active cells.

Assay [2] deals with Mycobacterium tuberculosis. The assay is described as follows: Antitubercular activity against isoniazid/rifampicin/streptomycin/ethambutol/levofloxacin-resistant Mycobacterium tuberculosis 16802 clinical isolate after 7 days by microplate alamar blue assay. Type of assay: functional. The note with it: Mycobacterium tuberculosis, 16802, 168 h.

In brackets after ≈: the same amount, converted by molar mass.

In the case of `CC(=O)NC[C@@H]1OC(=O)N2c3cc(F)c(C4=CCN(C(=O)CN)CC4)cc3OC[C@@H]12.Cl`, the results for the MIC90 in assay [1] and in assay [2] were 0.25 µg/mL and 2 µg/mL, respectively.

With `NNC(=O)c1ccncc1` [ISONIAZID], the results for the MIC90 in assay [1] and in assay [2] were above 40 µg/mL and 2.5 µg/mL (≈ 18.2 µM), respectively.

Regarding `CC(=O)NC[C@@H]1OC(=O)N2c3cc(F)c(C4=CCN(C(=O)[C@@H](O)CO)CC4)cc3OC[C@@H]12`, the MIC90 in assay [1] is 0.25 µg/mL (≈ 0.556 µM); in assay [2] it was 1 µg/mL (≈ 2.23 µM).

Take `CC(=O)NC[C@@H]1OC(=O)N2c3cc(F)c(C4=CCN(CCO)CC4)cc3OC[C@@H]12`: the MIC90 in assay [1] is 0.5 µg/mL (≈ 1.23 µM); in assay [2] it was 2 µg/mL (≈ 4.93 µM).

As to `CC(=O)NC[C@@H]1OC(=O)N2c3cc(F)c(C4=CCN(C(=O)CO)CC4)cc3OC[C@@H]12`, the MIC90 in assay [1] was determined as 0.25 µg/mL (≈ 0.596 µM); in assay [2], 0.5 µg/mL (≈ 1.19 µM).

Regarding `CO[C@H]1/C=C/O[C@@]2(C)Oc3c(C)c(O)c4c(O)c(c(/C=N/N5CCN(C)CC5)c(O)c4c3C2=O)NC(=O)/C(C)=C\C=C\[C@H](C)[C@H](O)[C@@H](C)[C@@H](O)[C@@H](C)[C@H](OC(C)=O)[C@@H]1C` [RIFAMPIN], the results for the MIC90 in assay [1] and in assay [2] were above 40 µg/mL and 20 µg/mL (≈ 24.3 µM), respectively.

For the molecule `O=C(NC[C@@H]1OC(=O)N2c3cc(F)c(C4=CCN(CCO)CC4)cc3OC[C@@H]12)C1CC1`, the results for the MIC90 in assay [1] and in assay [2] were 0.5 µg/mL (≈ 1.16 µM) and 1 µg/mL (≈ 2.32 µM), respectively.

Values taken from ChEMBL document CHEMBL3997852, “Discovery of Fluorine-Containing Benzoxazinyl-oxazolidinones for the Treatment of Multidrug Resistant Tuberculosis” (ACS Med Chem Lett, 2017).
